In ChEMBL document CHEMBL1629662, “Antimicrobial activity of prulifloxacin tested against a worldwide collection of gastroenteritis-producing pathogens, including those causing traveler's diarrhea” (2009):

Tests used:
Plesiomonas shigelloides [1] = test: Antibacterial activity against Plesiomonas shigelloides by broth microdilution method; format: functional
Aeromonas sobria [2] = test: Antibacterial activity against Aeromonas sobria assessed as percent resistant isolates by broth microdilution method; format: functional
Vibrio cholerae [3] = test: Antibacterial activity against Vibrio cholerae assessed as percent susceptible isolates by broth microdilution method; format: functional
Vibrio fluvialis [4] = test: Antibacterial activity against Vibrio fluvialis assessed as percent resistant isolates by broth microdilution method; format: functional
Shigella boydii [5] = test: Antibacterial activity against Shigella boydii assessed as percent susceptible isolates by broth microdilution method; format: functional; conditions: pooled result: one value given for 3 cell lines, strains, targets or settings
Salmonella enteritidis [6] = test: Antibacterial activity against Salmonella enterica serovar Enteritidis assessed as percent susceptible isolates by broth microdilution method; format: functional, Salmonella enterica subsp. enterica serovar Enteritidis; conditions: pooled result: one value given for 5 cell lines, strains, targets or settings
Aeromonas hydrophila [7] = test: Antibacterial activity against Aeromonas hydrophila assessed as percent susceptible isolates by broth microdilution method; format: functional
Salmonella typhimurium [8] = test: Antibacterial activity against Salmonella enterica serovar Typhimurium by broth microdilution method; format: functional, Salmonella enterica subsp. enterica serovar Typhimurium
Vibrio sp. [9] = test: Antibacterial activity against Vibrio sp. assessed as percent susceptible isolates by broth microdilution method; format: functional
Aeromonas hydrophila [10] = test: Antibacterial activity against Aeromonas hydrophila by broth microdilution method; format: functional
Campylobacter jejuni [11] = test: Antibacterial activity against Campylobacter jejuni by broth microdilution method; format: functional
Plesiomonas shigelloides [12] = test: Antibacterial activity against Plesiomonas shigelloides assessed as percent resistant isolates by broth microdilution method; format: functional
Shigella sonnei [13] = test: Antibacterial activity against Shigella sonnei by broth microdilution method; format: functional
Salmonella enteritidis [14] = test: Antibacterial activity against Salmonella enterica serovar Enteritidis by broth microdilution method; format: functional, Salmonella enterica subsp. enterica serovar Enteritidis
Aeromonas hydrophila [15] = test: Antibacterial activity against Aeromonas hydrophila assessed as percent resistant isolates by broth microdilution method; format: functional
Escherichia coli [16] = test: Antibacterial activity against Escherichia coli assessed as percent resistant isolates by broth microdilution method; format: functional
Campylobacter jejuni [17] = test: Antibacterial activity against Campylobacter jejuni assessed as percent resistant isolates by broth microdilution method; format: functional; conditions: pooled result: one value given for 2 cell lines, strains, targets or settings
Campylobacter coli = test: Antibacterial activity against Campylobacter coli by broth microdilution method; format: functional
Vibrio cholerae [18] = test: Antibacterial activity against Vibrio cholerae by broth microdilution method; format: functional
Vibrio cholerae [19] = test: Antibacterial activity against Vibrio cholerae assessed as percent resistant isolates by broth microdilution method; format: functional
Vibrio parahaemolyticus [20] = test: Antibacterial activity against Vibrio parahaemolyticus assessed as percent resistant isolates by broth microdilution method; format: functional
Vibrio alginolyticus [21] = test: Antibacterial activity against Vibrio alginolyticus by broth microdilution method; format: functional
Aeromonas sobria [22] = test: Antibacterial activity against Aeromonas sobria assessed as percent susceptible isolates by broth microdilution method; format: functional
Shigella dysenteriae = test: Antibacterial activity against Shigella dysenteriae by broth microdilution method; format: functional
Vibrio sp. [23] = test: Antibacterial activity against Vibrio sp. assessed as percent resistant isolates by broth microdilution method; format: functional
Plesiomonas shigelloides [24] = test: Antibacterial activity against Plesiomonas shigelloides assessed as percent susceptible isolates by broth microdilution method; format: functional
Shigella sonnei [25] = test: Antibacterial activity against Shigella sonnei assessed as percent resistant isolates by broth microdilution method; format: functional; conditions: pooled result: one value given for 4 cell lines, strains, targets or settings
[26] = system: Yersinia pseudotuberculosis; test: Antibacterial activity against Yersinia pseudotuberculosis by broth microdilution method; format: functional
Vibrio alginolyticus [27] = test: Antibacterial activity against Vibrio alginolyticus assessed as percent resistant isolates by broth microdilution method; format: functional
Aeromonas veronii [28] = test: Antibacterial activity against Aeromonas veronii by broth microdilution method; format: functional
Vibrio fluvialis [29] = test: Antibacterial activity against Vibrio fluvialis assessed as percent susceptible isolates by broth microdilution method; format: functional
Aeromonas veronii [30] = test: Antibacterial activity against Aeromonas veronii assessed as percent susceptible isolates by broth microdilution method; format: functional
Vibrio parahaemolyticus [31] = test: Antibacterial activity against Vibrio parahaemolyticus assessed as percent susceptible isolates by broth microdilution method; format: functional
Vibrio alginolyticus [32] = test: Antibacterial activity against Vibrio alginolyticus assessed as percent susceptible isolates by broth microdilution method; format: functional
Aeromonas caviae [33] = test: Antibacterial activity against Aeromonas caviae assessed as percent resistant isolates by broth microdilution method; format: functional
Aeromonas sobria [34] = test: Antibacterial activity against Aeromonas sobria by broth microdilution method; format: functional
Vibrio sp. [35] = test: Antibacterial activity against Vibrio sp. by broth microdilution method; format: functional
Aeromonas caviae [36] = test: Antibacterial activity against Aeromonas caviae assessed as percent susceptible isolates by broth microdilution method; format: functional
Shigella boydii [37] = test: Antibacterial activity against Shigella boydii by broth microdilution method; format: functional
Yersinia enterocolitica [38] = test: Antibacterial activity against Yersinia enterocolitica assessed as percent resistant isolates by broth microdilution method; format: functional
Aeromonas veronii [39] = test: Antibacterial activity against Aeromonas veronii assessed as percent resistant isolates by broth microdilution method; format: functional
Vibrio fluvialis [40] = test: Antibacterial activity against Vibrio fluvialis by broth microdilution method; format: functional
Escherichia coli [41] = test: Antibacterial activity against Escherichia coli by broth microdilution method; format: functional
Yersinia enterocolitica [42] = test: Antibacterial activity against Yersinia enterocolitica assessed as percent susceptible isolates by broth microdilution method; format: functional
Yersinia enterocolitica [43] = test: Antibacterial activity against Yersinia enterocolitica by broth microdilution method; format: functional
Escherichia coli [44] = test: Antibacterial activity against Escherichia coli assessed as percent susceptible isolates by broth microdilution method; format: functional
Vibrio vulnificus [45] = test: Antibacterial activity against Vibrio vulnificus assessed as percent susceptible isolates by broth microdilution method; format: functional
Vibrio parahaemolyticus [46] = test: Antibacterial activity against Vibrio parahaemolyticus by broth microdilution method; format: functional
Shigella flexneri = test: Antibacterial activity against Shigella flexneri by broth microdilution method; format: functional
Campylobacter jejuni [47] = test: Antibacterial activity against Campylobacter jejuni assessed as percent susceptible isolates by broth microdilution method; format: functional; conditions: pooled result: one value given for 2 cell lines, strains, targets or settings
Salmonella typhimurium [48] = test: Antibacterial activity against Salmonella enterica serovar Typhimurium assessed as percent resistant isolates by broth microdilution method; format: functional, Salmonella enterica subsp. enterica serovar Typhimurium; conditions: pooled result: one value given for 8 cell lines, strains, targets or settings
Vibrio vulnificus [49] = test: Antibacterial activity against Vibrio vulnificus assessed as percent resistant isolates by broth microdilution method; format: functional
Aeromonas caviae [50] = test: Antibacterial activity against Aeromonas caviae by broth microdilution method; format: functional
Vibrio vulnificus [51] = test: Antibacterial activity against Vibrio vulnificus by broth microdilution method; format: functional

C[C@H]1c2cccc(O)c2C(=O)C2=C(O)[C@]3(O)C(=O)C(C(N)=O)=C(O)[C@@H](N(C)C)[C@@H]3[C@@H](O)[C@@H]21.O [DOXYCYCLINE]
MIC (Plesiomonas shigelloides [1]): ≤ 0.12 µg/mL
MIC50 (Plesiomonas shigelloides [1]): ≤ 0.12 µg/mL
Activity (Aeromonas sobria [2]): 0%
Activity (Vibrio cholerae [3]): 100%
Activity (Vibrio fluvialis [4]): 0%
Activity (Shigella boydii [5]): 34.7%
Activity (Salmonella enteritidis [6]): 82.2%
Activity (Aeromonas hydrophila [7]): 100%
MIC50 (Salmonella typhimurium [8]): 2 µg/mL
MIC90 (Salmonella typhimurium [8]): 32 µg/mL
Activity (Vibrio sp. [9]): 100%
MIC50 (Aeromonas hydrophila [10]): 0.5 µg/mL
MIC90 (Aeromonas hydrophila [10]): 1 µg/mL
MIC (Campylobacter jejuni [11]): ≤ 0.12 µg/mL
MIC50 (Campylobacter jejuni [11]): ≤ 0.12 µg/mL
MIC90 (Campylobacter jejuni [11]): 16 µg/mL
Activity (Plesiomonas shigelloides [12]): 0%
MIC50 (Shigella sonnei [13]): 16 µg/mL
MIC90 (Shigella sonnei [13]): 32 µg/mL
MIC50 (Salmonella enteritidis [14]): 2 µg/mL
MIC90 (Salmonella enteritidis [14]): 32 µg/mL
Activity (Aeromonas hydrophila [15]): 0%
Activity (Escherichia coli [16]): 16%
Activity (Campylobacter jejuni [17]): 33.9%
MIC (Campylobacter coli): ≤ 0.12 µg/mL
MIC50 (Campylobacter coli): ≤ 0.12 µg/mL
MIC90 (Campylobacter coli): 16 µg/mL
MIC (Vibrio cholerae [18]): ≤ 0.12 µg/mL
MIC50 (Vibrio cholerae [18]): ≤ 0.12 µg/mL
MIC90 (Vibrio cholerae [18]): ≤ 0.12 µg/mL
Activity (Vibrio cholerae [19]): 0%
Activity (Vibrio parahaemolyticus [20]): 0%
MIC (Vibrio alginolyticus [21]): ≤ 0.12 µg/mL
MIC50 (Vibrio alginolyticus [21]): ≤ 0.12 µg/mL
MIC90 (Vibrio alginolyticus [21]): ≤ 0.12 µg/mL
Activity (Aeromonas sobria [22]): 100%
MIC50 (Shigella dysenteriae): 16 µg/mL
MIC90 (Shigella dysenteriae): 32 µg/mL
Activity (Vibrio sp. [23]): 0%
Activity (Plesiomonas shigelloides [24]): 100%
Activity (Shigella sonnei [25]): 52.5%
MIC50 [26]: 1 µg/mL
MIC90 [26]: 2 µg/mL
Activity (Vibrio alginolyticus [27]): 0%
MIC50 (Aeromonas veronii [28]): 0.5 µg/mL
MIC90 (Aeromonas veronii [28]): 1 µg/mL
Activity (Vibrio fluvialis [29]): 100%
Activity (Aeromonas veronii [30]): 100%
Activity (Vibrio parahaemolyticus [31]): 100%
Activity (Vibrio alginolyticus [32]): 100%
Activity (Aeromonas caviae [33]): 0%
MIC50 (Aeromonas sobria [34]): 0.5 µg/mL
MIC90 (Aeromonas sobria [34]): 1 µg/mL
MIC (Vibrio sp. [35]): ≤ 0.12 µg/mL
MIC50 (Vibrio sp. [35]): ≤ 0.12 µg/mL
MIC90 (Vibrio sp. [35]): ≤ 0.12 µg/mL
Activity (Aeromonas caviae [36]): 100%
MIC50 (Shigella boydii [37]): 16 µg/mL
MIC90 (Shigella boydii [37]): 32 µg/mL
Activity (Yersinia enterocolitica [38]): 4.3%
Activity (Aeromonas veronii [39]): 0%
MIC (Vibrio fluvialis [40]): ≤ 0.12 µg/mL
MIC50 (Vibrio fluvialis [40]): ≤ 0.12 µg/mL
MIC90 (Vibrio fluvialis [40]): ≤ 0.12 µg/mL
MIC50 (Escherichia coli [41]): 2 µg/mL
MIC90 (Escherichia coli [41]): 16 µg/mL
Activity (Yersinia enterocolitica [42]): 95.7%
MIC50 (Yersinia enterocolitica [43]): 1 µg/mL
MIC90 (Yersinia enterocolitica [43]): 2 µg/mL
Activity (Escherichia coli [44]): 76%
Activity (Vibrio vulnificus [45]): 100%
MIC (Vibrio parahaemolyticus [46]): ≤ 0.12 µg/mL
MIC50 (Vibrio parahaemolyticus [46]): ≤ 0.12 µg/mL
MIC90 (Vibrio parahaemolyticus [46]): ≤ 0.12 µg/mL
MIC50 (Shigella flexneri): 16 µg/mL
MIC90 (Shigella flexneri): 32 µg/mL
Activity (Campylobacter jejuni [47]): 59.6%
Activity (Salmonella typhimurium [48]): 13.9%
Activity (Vibrio vulnificus [49]): 0%
MIC50 (Aeromonas caviae [50]): 0.5 µg/mL
MIC90 (Aeromonas caviae [50]): 1 µg/mL
MIC (Vibrio vulnificus [51]): ≤ 0.12 µg/mL
MIC50 (Vibrio vulnificus [51]): ≤ 0.12 µg/mL
MIC90 (Vibrio vulnificus [51]): ≤ 0.12 µg/mL
